Columns and labels:
Format in all cases: biochemical
[1] = biological target: human JAK1 (a.a. 837-1142) (Homo sapiens, UniProt P23458); assay: In vitro JAK kinase assay (HTRF, phosphorylation of a biotinylated peptide), JAK1; conditions: measured at 1 mM ATP
How it was run: (§1)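 N-terminal His-tagged catalytic domains, baculovirus-expressed in insect cells, phosphorylated a biotinylated peptide for 1 hr at room temperature. EDTA stop was followed by SA-APC and Eu-Py20 antibody for 40 minutes, with phosphopeptide read by HTRF.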

[2] = biological target: human JAK1 (a.a. 837-1142); assay: as above; conditions: ratio of JAK2 IC50 to JAK1 IC50, measured at 1 mM ATP
How it was run: as §1

Jak2 (a.a. 828-1132) = Jak2 (a.a. 828-1132) (Homo sapiens (Human), UniProt O60674); assay: In vitro JAK kinase assay (HTRF, phosphorylation of a biotinylated peptide), JAK2; conditions: measured at 1 mM ATP
Jak2 (a.a. 828-1132), sequence (O60674 828-1132): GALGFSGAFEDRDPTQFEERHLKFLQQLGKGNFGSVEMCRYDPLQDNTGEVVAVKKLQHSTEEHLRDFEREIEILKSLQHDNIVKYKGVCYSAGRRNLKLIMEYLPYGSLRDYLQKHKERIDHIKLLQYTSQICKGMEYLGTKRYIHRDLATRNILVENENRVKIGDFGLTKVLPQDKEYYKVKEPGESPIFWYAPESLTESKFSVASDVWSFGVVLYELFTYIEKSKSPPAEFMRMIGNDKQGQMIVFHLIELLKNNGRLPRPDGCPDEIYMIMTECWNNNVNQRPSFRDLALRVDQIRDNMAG
How it was run: as §1

SMILES	IC50 [1]	IC50 Ratio JAK2/JAK1 [2]	IC50 (Jak2 (a.a. 828-1132))
N#CCC1(n2cc(-c3ncnc4[nH]ccc34)cn2)CN(C2CCN(C(=O)c3ccc(-c4cccc5ncccc45)c(F)c3)CC2)C1 [Example 129, {1-[1-(3-fluoro-4-quinolin-5-ylbenzoyl)piperidin-4-yl]-3-[4-(7H-pyrrolo[2,3-d]pyrimidin-4-yl)-1H-pyrazol-1-yl]azetidin-3-yl}acetonitrile]	≤ 5 nM	7.9	≤ 10 nM
N#CCC1(n2cc(-c3ncnc4[nH]ccc34)cn2)CN(C2CCN(C(=O)c3c(F)cccc3C(F)(F)F)CC2)C1 [Example 45, {1-{1-[2-fluoro-6-(trifluoromethyl)benzoyl]piperidin-4-yl}-3-[4-(7H-pyrrolo[2,3-d]pyrimidin-4-yl)-1H-pyrazol-1-yl]azetidin-3-yl}acetonitrile]	≤ 5 nM	3.1	10 to 50 nM
N#CCC1(n2cc(-c3ncnc4[nH]ccc34)cn2)CN(C2CCN(C(=O)c3ccsc3)CC2)C1 [Example 15, {3-[4-(7H-pyrrolo[2,3-d]pyrimidin-4-yl)-1H-pyrazol-1-yl]-1-[1-(3-thienylcarbonyl)piperidin-4-yl]azetidin-3-yl}acetonitrile]	5 to 20 nM	5.3	10 to 50 nM
Cc1cccc(Cl)c1NC(=O)N1CCC(N2CC(CC#N)(n3cc(-c4ncnc5[nH]ccc45)cn3)C2)CC1 [Example 161, N-(2-chloro-6-methylphenyl)-4-{3-(cyanomethyl)-3-[4-(7H-pyrrolo[2,3-d]pyrimidin-4-yl)-1H-pyrazol-1-yl]azetidin-1-yl}piperidine-1-carboxamide]	≤ 5 nM	12.1	10 to 50 nM
Cc1nc(F)ccc1NC(=O)N1CCC(N2CC(CC#N)(n3cc(-c4ncnc5[nH]ccc45)cn3)C2)CC1 [Example 199, 4-{3-(cyanomethyl)-3-[4-(7H-pyrrolo[2,3-d]pyrimidin-4-yl)-1H-pyrazol-1-yl]azetidin-1-yl}-N-(6-fluoro-2-methylpyridin-3-yl)piperidine-1-carboxamide]	≤ 5 nM	10.0	10 to 50 nM
N#CCC1(n2cc(-c3ncnc4[nH]ccc34)cn2)CN(C2CCN(C(=O)Nc3cc(F)cc(F)c3F)CC2)C1 [Example 173, 4-{3-(cyanomethyl)-3-[4-(7H-pyrrolo[2,3-d]pyrimidin-4-yl)-1H-pyrazol-1-yl]azetidin-1-yl}-N-(2,3,5-trifluorophenyl)piperidine-1-carboxamide]	5 to 20 nM	5.7	10 to 50 nM
N#CCC1(n2cc(-c3c(F)cnc4[nH]ccc34)cn2)CN(C2CCN(C(=O)Nc3ccncc3C(F)(F)F)CC2)C1 [Example 331, 4-{3-(cyanomethyl)-3-[4-(5-fluoro-1H-pyrrolo[2,3-b]pyridin-4-yl)-1H-pyrazol-1-yl]azetidin-1-yl}-N-[3-(trifluoromethyl)pyridin-4-yl]piperidine-1-carboxamide]	≤ 5 nM	10.8	10 to 50 nM
N#CCC1(n2cc(-c3ncnc4[nH]ccc34)cn2)CN(C2CCN(C(=O)c3cccc(OC(F)(F)F)c3)CC2)C1 [Example 21, (3-[4-(7H-pyrrolo[2,3-d]pyrimidin-4-yl)-1H-pyrazol-1-yl]-1-{1-[3-(trifluoromethoxy)benzoyl]piperidin-4-yl}azetidin-3-yl)acetonitrile]	5 to 20 nM	3.2	10 to 50 nM
N#CCC1(n2cc(-c3ncnc4[nH]ccc34)cn2)CN(C2CCN(C(=O)C3(c4ccccc4)CC3)CC2)C1 [Example 110, {1-{1-[(1-phenylcyclopropyl)carbonyl]piperidin-4-yl}-3-[4-(7H-pyrrolo[2,3-d]pyrimidin-4-yl)-1H-pyrazol-1-yl]azetidin-3-yl}acetonitrile]	5 to 20 nM	1.6	10 to 50 nM
N#CCC1(n2cc(-c3ncnc4[nH]ccc34)cn2)CN(C2CCN(C(=O)c3ccc4ncccc4c3)CC2)C1 [Example 89, {3-[4-(7H-pyrrolo[2,3-d]pyrimidin-4-yl)-1H-pyrazol-1-yl]-1-[1-(quinolin-6-ylcarbonyl)piperidin-4-yl]azetidin-3-yl}acetonitrile]	≤ 5 nM	2.6	≤ 10 nM
N#CCC1(n2cc(-c3ncnc4[nH]ccc34)cn2)CN(C2CCN(C(=O)c3ccc(-c4ccc5cnccc5c4)c(F)c3)CC2)C1 [Example 115, {1-[1-(3-fluoro-4-isoquinolin-6-ylbenzoyl)piperidin-4-yl]-3-[4-(7H-pyrrolo[2,3-d]pyrimidin-4-yl)-1H-pyrazol-1-yl]azetidin-3-yl}acetonitrile]	≤ 5 nM	15.7	10 to 50 nM

Other lines, results leading:

IC50 [1]	IC50 Ratio JAK2/JAK1 [2]	IC50 (Jak2 (a.a. 828-1132))	SMILES
5 to 20 nM	11.1	50 to 100 nM	N#CCC1(n2cc(-c3ncnc4[nH]ccc34)cn2)CN(C2CCN(C(=O)OCc3ccc(F)c(F)c3)CC2)C1 [Example 394, 3,4-difluorobenzyl 4-{3-(cyanomethyl)-3-[4-(7H-pyrrolo[2,3-d]pyrimidin-4-yl)-1H-pyrazol-1-yl]azetidin-1-yl}piperidine-1-carboxylate]
≤ 5 nM	5.8	≤ 10 nM	N#CCC1(n2cc(-c3ncnc4[nH]ccc34)cn2)CN(C2CCN(S(=O)(=O)C3CCCC3)CC2)C1 [Example 253, {1-[1-(cyclopentylsulfonyl)piperidin-4-yl]-3-[4-(7H-pyrrolo[2,3-d]pyrimidin-4-yl)-1H-pyrazol-1-yl]azetidin-3-yl}acetonitrile]
≤ 5 nM	22.4	50 to 100 nM	N#CCC1(n2cc(-c3ncnc4[nH]ccc34)cn2)CN([C@@H]2CCN(C(=O)c3ccnc(C(F)(F)F)n3)C[C@@H]2F)C1 (relative stereo) [Example 362, {1-(cis-3-Fluoro-1-{[2-(trifluoromethyl)pyrimidin-4-yl]carbonyl}piperidin-4-yl)-3-[4-(7H-pyrrolo[2,3-d]pyrimidin-4-yl)-1H-pyrazol-1-yl]azetidin-3-yl}acetonitrile]
≤ 5 nM	6.1	≤ 10 nM	N#CCC1(n2ccc(-c3ncnc4[nH]ccc34)c2)CN(C2CCN(C(=O)c3c(F)ccc(F)c3F)CC2)C1 [Example 270, {3-[3-(7H-pyrrolo[2,3-d]pyrimidin-4-yl)-1H-pyrrol-1-yl]-1-[1-(2,3,6-trifluorobenzoyl)piperidin-4-yl]azetidin-3-yl}acetonitrile]
5 to 20 nM	5.1	10 to 50 nM	N#CCC1(n2cc(-c3ccnc4[nH]ccc34)cn2)CN(C2CCN(C(=O)c3ccc(C#N)cc3F)CC2)C1 [Example 295, 4-[(4-{3-(cyanomethyl)-3-[4-(1H-pyrrolo[2,3-b]pyridin-4-yl)-1H-pyrazol-1-yl]azetidin-1-yl}piperidin-1-yl)carbonyl]-3-fluorobenzonitrile]
5 to 20 nM	6.7	50 to 100 nM	N#CCC1(n2ccc(-c3ncnc4[nH]ccc34)c2)CN(C2CCN(C(=O)Nc3ccccc3C#N)CC2)C1 [Example 287, 4-{3-(cyanomethyl)-3-[3-(7H-pyrrolo[2,3-d]pyrimidin-4-yl)-1H-pyrrol-1-yl]azetidin-1-yl}-N-(2-cyanophenyl)piperidine-1-carboxamide]
≤ 5 nM	3.9	≤ 10 nM	N#CCC1(n2cc(-c3ncnc4[nH]ccc34)cn2)CN(C2CCN(Cc3c(F)ccc(Cl)c3F)CC2)C1 [Example 228, {1-[1-(3-chloro-2,6-difluorobenzyl)piperidin-4-yl]-3-[4-(7H-pyrrolo[2,3-d]pyrimidin-4-yl)-1H-pyrazol-1-yl]azetidin-3-yl}acetonitrile]
5 to 20 nM	11.7	> 100 nM	N#CCC1(n2cc(-c3ccnc4[nH]ccc34)cn2)CN(C2CCN(C(=O)c3cncc(C(F)(F)F)n3)CC2)C1 [Example 300, [3-[4-(1H-pyrrolo[2,3-b]pyridin-4-yl)-1H-pyrazol-1-yl]-1-(1-{[6-(trifluoromethyl)pyrazin-2-yl]carbonyl}piperidin-4-yl)azetidin-3-yl]acetonitrile]
20 to 30 nM	2.6	50 to 100 nM	COc1cccc(F)c1CN1CCC(N2CC(CC#N)(n3cc(-c4ncnc5[nH]ccc45)cn3)C2)CC1 [Example 218, {1-[1-(2-fluoro-6-methoxybenzyl)piperidin-4-yl]-3-[4-(7H-pyrrolo[2,3-d]pyrimidin-4-yl)-1H-pyrazol-1-yl]azetidin-3-yl}acetonitrile]
≤ 5 nM	7.7	10 to 50 nM	CCCOC(=O)N1CCC(N2CC(CC#N)(n3cc(-c4ncnc5[nH]ccc45)cn3)C2)CC1 [Example 386, Propyl 4-{3-(cyanomethyl)-3-[4-(7H-pyrrolo[2,3-d]pyrimidin-4-yl)-1H-pyrazol-1-yl]azetidin-1-yl}piperidine-1-carboxylate]
20 to 30 nM	5.2	> 100 nM	N#CCC1(n2cc(-c3ncnc4[nH]ccc34)cn2)CN(C2CCN(S(=O)(=O)c3cccc(C#N)c3)CC2)C1 [Example 248, 3-[(4-{3-(cyanomethyl)-3-[4-(7H-pyrrolo[2,3-d]pyrimidin-4-yl)-1H-pyrazol-1-yl]azetidin-1-yl}piperidin-1-yl)sulfonyl]benzonitrile]
≤ 5 nM	9.0	10 to 50 nM	N#CCC1(n2cc(-c3ccnc4[nH]ccc34)cn2)CN(C2CCN(C(=O)Nc3ccccc3Cl)CC2)C1 [Example 310, N-(2-chlorophenyl)-4-{3-(cyanomethyl)-3-[4-(1H-pyrrolo[2,3-b]pyridin-4-yl)-1H-pyrazol-1-yl]azetidin-1-yl}piperidine-1-carboxamide]

From US9999619B2, “Piperidin-4-yl azetidine derivatives as JAK1 inhibitors” (Incyte Corporation, priority 2010, dated 2018)
